{"source": "patent US7354948B2", "about": "“Methods for treatment of chronic uveitis using cyclopropyl-n-{2-[(1S)-1-(3-ethoxy-4-methoxyphenyl)-2-(methylsulfonyl)ethyl]-3-oxoisoindoline-4-yl}carboxamide” (Celgene Corporation, priority 2002, dated 2008)", "key": {"anesthetized dogs": {"tested_on": "anesthetized dogs", "assay": "Toxicology study: cardiovascular and respiratory function in anesthetized dogs", "format": "in vivo, Beagle dogs", "procedure": "The effects of 3-(3,4-dimethoxy-phenyl)-3-(1-oxo-1,3-dihydro-isoindol-2-yl)-propionamide on cardiovascular and respiratory function are investigated in anesthetized dogs. Two groups of Beagle dogs (2/sex/group) are used. One group receives three doses of vehicle only and the other receives three ascending doses of the compound (200, 400, and 800 mg/kg). In all cases, doses of the compound or vehicle are successively administered via infusion through the jugular vein separated by intervals of at least 30 minutes."}, "[1]": {"tested_on": "TNF-α production following LPS-stimulation of human PBMC and human whole blood", "assay": "Modulation of cytokine production, in vitro studies", "format": "cell-based", "conditions": "compared with thalidomide", "from_the_text": "In a specific embodiment, the pharmacological properties of 3-(3,4-dimethoxy-phenyl)-3-(1-oxo-1,3-dihydro-isoindol-2-yl)-propionamide are characterized in in vitro studies. Studies examine the effects of the compound on the production of various cytokines. Inhibition of TNF-α production following LPS-stimulation of human PBMC and human whole blood by the compound is investigated in vitro. […] The pharmacological effects of 3-(3,4-dimethoxy-phenyl)-3-(1-oxo-1,3-dihydro-isoindol-2-yl)-propionamide may derive from its action as an inhibitor of the generation of inflammatory cytokines."}}, "data": [{"compound": "COc1ccc(C(CC(N)=O)N2Cc3ccccc3C2=O)cc1OC", "note": "(stereo not shown) [3-(3,4-dimethoxy-phenyl)-3-(1-oxo-1,3-dihydro-isoindol-2-yl)-propionamide]", "values": [{"measurement": "cardiovascular and respiratory changes", "setting": "anesthetized dogs; all doses (200, 400, and 800 mg/kg), infusion through the jugular vein, compared to vehicle control group", "value": "minimal"}, {"measurement": "arterial blood pressure", "setting": "anesthetized dogs; following the low dose, only statistically significant difference between vehicle and treatment groups", "value": "small increase"}, {"measurement": "arterial blood pressure effect", "setting": "anesthetized dogs; higher doses", "value": "not seen"}, {"measurement": "pharmacological activity profile, potency relative to thalidomide", "setting": "[1]", "value": "five to fifty times more potent than thalidomide"}]}]}
